Legend:
[1] = tested on: non-resectable pancreatic adenocarcinoma; test: Open-label Phase Ib clinical trial of compound Ib plus FOLFIRINOX, response by RECIST 1.1; assay type: in vivo, patients; conditions: for Tumor control rate: 12 weeks of treatment, 150 mg twice daily plus FOLFIRINOX; for Progressive disease / Stable disease / Overall response rate: 12 weeks, plus FOLFIRINOX; for Overall response rate: RECIST 1.1, all partial responses
Description: Fifty-four patients age 18 years or older were enrolled on an open-label phase 1-b interventional study to evaluate the safety and efficacy of compound Ib in patients with pancreatic adenocarcinoma also receiving FOLFIRINOX chemotherapy. Dosing consisted of 150 mg tablets for oral administration once or twice daily given orally for at least 12 weeks.
Inclusion criteria included: • Histologically or cytologically confirmed non-resectable pancreatic adenocarcinoma with or without metastases • Eastern Cooperative Oncology Group (ECOG) performance status score ≤2 • Anticipated life expectancy a ≥12 weeks • Radiographically measurable disease acc. to RECIST 1.1 • Use of adequate contraception (as described in protocol) • Ability to provide written informed consent and comply with study requirements.
Exclusion criteria included: • Received other cancer treatment or investigational drug within 4 weeks prior to screening • Women who are pregnant or breastfeeding • Had major surgery within 4 weeks of first dose of study drug • Inadequate liver, renal or bone marrow function within 2 weeks of first dose • Serious concurrent illness, altered medical status or any uncontrolled medical condition • Any infection requiring antibiotic or anti-viral treatment within 4 weeks of screening • Known active HIV, HBV or HCV infection • Inability to swallow tablets • History or presence of any medical condition or disease which, in the opinion of the investigator, may place the subject at unacceptable risk for study participation. Initial 12 week overall response rate (ORR) results:
The open-label, multi-center, Phase Ib clinical trial was designed to evaluate the safety and efficacy of orally administered compound Ib plus FOLFIRINOX in 50 patients with non-resectable pancreatic cancer. Patients received 150 mg of compound Ib twice daily for 12 weeks. After 12 weeks, patients who achieved stable disease or better (as measured by Response Evaluation Criteria In Solid Tumors, or RECIST 1.1), were eligible to continue on study for at least an additional 12 weeks unless disease progression occured. Per protocol, the Eastern Cooperative Oncology Group (ECOG) performance status of patients in the trial was 0, 1 or 2.
Patients enrolled in the study had advanced non-resectable pancreatic cancer (78% of patients having metastatic disease), and an Eastern Cooperative Oncology Group (ECOG) Performance Status score of less than or equal to 2. In order to assess the initial treatment effect of compound Ib, the study provided for assessment of overall response rate (ORR) based on computerized tomography (CT) imaging following 12 weeks of treatment.
The pre-specified evaluable ORR population consists of all patients who have at least one post-baseline disease CT assessment. Response rate results at 12 weeks of treatment were as follows: […]

[2] = Pharmacokinetics in Sprague-Dawley rats (i.v. and oral); assay type: in vivo; conditions: for clearance / bioavailability / AUC: rat, plasma; for clearance: iv, 0.5 mg/kg; for bioavailability: po 2 mg/kg, iv 0.5 mg/kg; for AUC: po, 2 mg/kg
Description: Compound Ib and PF-04136309 were dosed intravenously at 0.5 mg/kg and orally at 2 mg/kg, in aqueous hydroxypropyl methylcellulose. Blood samples were collected at predetermined time points after each dosing and the corresponding plasma concentrations of Compound Ib and PF-04136309 were analyzed using an LC-MS/MS method. Plasma concentration-time curves were constructed and the corresponding pharmacokinetic parameters were derived using non-compartmental analysis.
Blood (0.2 mL) was sampled through the jugular vein or cardiac puncture (for terminal point only) at pre-dose, 2, 5, 10, 15, and 30 min, 1, 2, 4, 6, and 8 hours post-dose for i.v. dosing and at pre-dose, 5, 15, and 30 min, 1, 1.5, 2, 4, 6, and 8 hours post-dose for oral dosing. Blood samples were collected into chilled polypropylene tubes containing sodium EDTA as the anticoagulant and plasma was collected through centrifugation (Eppendorf Centrifuge 5417R) at 10,000 rpm and 4° C. for 6 minutes and stored at −20° C. until analysis.
(§1) Plasma samples (50 μL) were extracted with 200 μL acetonitrile containing the internal standard on a linear shaker for 10 min and then centrifuged at 3700 g for 10 min at 4° C. (Allegra X-15R centrifuge, Beckman Coulter, Inc., Fullerton, Calif.). 100 μL of the resulting supernatant was transferred into a new plate and mixed with 100 μL 0.1% formic acid in water for LC-MS/MS analysis.
(§2) Calibration standard samples were prepared with blank Sprague-Dawley rat plasma, at 5000, 2500, 1000, 500, 100, 50, 20, 10, 4, 2 and 1 ng/mL of compound. Three levels of the standard stock solutions (1000, 100 and 10 ng/mL) were spiked separately into male Sprague-Dawley rat plasma and used as QC samples. Plasma standards and QC samples were treated identically and prepared in parallel with the plasma samples. Extracted samples were analyzed by LC-MS/MS.
Mass spectrometer acquisition and integration were performed with Applied Biosystems-Sciex Analyst software (version 1.4.2). The calibration curve was obtained through a quadratic regression and the calibration range was 2-5000 ng/mL.
(§3) Instrument: • API 3000 mass spectrometer (Applied Biosystems, Foster City, Calif.) • Agilent 1100 HPLC binary pump (Santa Clara, Calif.) • LEAP Technologies HTS Pal Autosampler (Carrboro, N.C.) • Thermo Scientific Cohesive Aria LX-2 duplexing system (Waltham, Mass.) Column: Zorbax Eclipse XDB Phenyl 2.1×50 mm (Agilent, Santa Clara, Calif.) Injection Volume: 10 μL Flow Rate: 0.60 mL/min
Ionization Mode: Electrospray (ESI). Detection Mode: Positive MRM. For each dosing route, descriptive pharmacokinetic parameters were determined by a standard non-compartmental analysis (Wagner, 1993) from the plasma concentration-time curve. Pharmacokinetic analysis was performed by using XLFit® v.4.3.1 (ID Business Solutions Inc., Alameda, Calif.) in conjunction with Microsoft Excel 2003.

[3] = Pharmacokinetics of compound Ib in male beagle dogs (i.v. and oral); assay type: in vivo; conditions: Dog
Description: The pharmacokinetic profile of compound Ib was evaluated in male beagle dogs following intravenous (i.v.) and oral (p.o.) administration. A single dose of compound Ib was dosed intravenously at 0.5 mg/kg and orally at 2 mg/kg. Blood samples were collected at predetermined time points after each dosing and the corresponding plasma samples were analyzed using an LC-MS/MS method. Plasma concentration-time curves were constructed using the plasma concentrations and the corresponding pharmacokinetic parameters were derived by non-compartmental analysis.
Six animals weighing 11.5, 9.9, 9.9, 14.6, 11.1, and 9.8 kg, respectively, were used with Compound Ib dosed intravenously at 0.5 mg/kg (the first 3 animals) and orally at 2 mg/kg (the second 3 animals).
For i.v. dosing, a solution formulation of Compound Ib was prepared in 36.8% water/31.6% propylene glycol/31.6% N,N-dimethyl acetamide at 0.5 mg/mL and each animal received 1 mL/kg. For oral dosing at 2 mg/kg, a solution formulation was prepared in 1% hydroxypropyl methylcellulose at 0.5 mg/mL and each animal received 4 mL/kg.
For dosing, blood (˜1 mL) was drawn at pre-dose and at 5, 15, and 30 min, 1, 2, 4, 8, 12, and 24 hours post-dose. Blood was sampled from the foreleg vein via butterfly catheter and then placed into chilled polypropylene tubes containing K2EDTA as the anticoagulant and kept on ice until centrifugation. Plasma was collected through centrifugation and shipped on dry ice for sample analysis.
as §1, with “0.1% formic acid/acetonitrile” for “acetonitrile”
as §2, with “blank dog” for “blank Sprague-Dawley rat”, “of Compound Ib.” for “of compound.”, “male beagle dog” for “male Sprague-Dawley rat”, “samples.” for “samples. Extracted samples were analyzed by LC-MS/MS.”
Sample analysis was performed by LC-MS/MS (details shown below). Acquisition and peak integration were performed with the Applied Biosystems-Sciex Analyst software (version 1.4.2). Calibration curves were obtained through quadratic regression with a weighting of 1/x. The calibration range was 1-5000 ng/mL.
as §3, with “Instrument: • Applied Biosystems API 3000” for “Instrument: • API 3000”, “mass spectrometer (Foster City, Calif.)” for “mass spectrometer (Applied Biosystems, Foster City, Calif.)”
Ionization Mode: Turbo Ionspray ESI Detection Mode: Positive MRM For each dosing route, descriptive pharmacokinetic parameters were determined by a standard non-compartmental analysis (Wagner, 1993) from the plasma concentration-time curve. • CL: Total body clearance • AUC: area under the curve • F: Bioavailability.
Pharmacokinetic analysis was performed by using XLFit® v.4.3.1 (ID Business Solutions Inc., Alameda, Calif.) in conjunction with Microsoft Excel 2003.

[4] = ITT Patient Population (N = 50)
[5] = Pre-Specified Evaluable Patient Population (N = 41)
[6] = male, beagle, plasma, po, mean, N = 3, dosed at 2 mg/kg

| Clearance compared to PF-4136309 [2] | Exposure (AUC) compared to PF-4136309 [2] | clearance [2] [mL/min/kg] | bioavailability [2] [%] | AUC [2] [ng·h/mL] | Clearance compared to PF-4136309 ([3]; at comparable doses) | Exposure (AUC) compared to PF-4136309 ([3]; at comparable doses) | clearance ([3]; male, beagle, plasma, iv, mean, N = 3, dosed at 0.5 mg/kg) [mL/min/kg] | AUC [3, 6] [ng·h/mL] | bioavailability [3, 6] [%] | Compound | Tumor control rate [1, 4] | Tumor control rate ([1]; Pre-Specified Evaluable Patient Population (N = 41), includes stable disease, partial response and complete response) | Progressive disease [1, 4] | Stable disease [1, 4] | Progressive disease [1, 5] | Stable disease [1, 5] | Overall response rate [1, 4] | Overall response rate [1, 5] | Tolerability ([1]; advanced pancreatic cancer patients, combined with FOLFIRINOX) | Incidence and rate of adverse events ([1]; compound Ib combined with FOLFIRINOX, versus historical FOLFIRINOX alone) |
| --- | --- | --- | --- | --- | --- | --- | --- | --- | --- | --- | --- | --- | --- | --- | --- | --- | --- | --- | --- | --- |
| much lower | much higher | 11.5 | 133 | 3910 | much lower | much higher | 0.7 | 67000 | 143 | Cc1cnc(C(=O)c2ccnc3[nH]ccc23)c(NS(=O)(=O)c2ccc(Cl)c(C(F)(F)F)c2)c1 [Compound Ib] | 32/50 (64%) | 32/41 (78%) | 9/50 (18%) | 17/50 (34%) | 9/41 (22%) | 17/41 (41%) | 15/50 (30%) | 15/41 (37%) | well tolerated | consistent with data reported historically for FOLFIRINOX alone |
|  |  | 71.1 | 22 | 111 |  |  |  |  |  | O=C(NCC(=O)N1CC[C@H](N[C@H]2CC[C@@](O)(c3ccc(-c4ncccn4)cn3)CC2)C1)c1cccc(C(F)(F)F)c1 [PF-04136309, reference compound] |  |  |  |  |  |  |  |  |  |  |

Source: patent US10583131B2, “Methods of treating pancreatic cancer” (ChemoCentryx, Inc., priority 2016, dated 2020)
